Measured values from patent EP2140864A2 (H. Lundbeck A/S, priority 2001, dated 2002).
Where two headings read alike, the source gives them in different places. Marks after values point to notes of the source that are not given here.

How the values were obtained:
human GAL3 receptor = target: T1, human GAL3 receptor (Homo sapiens, UniProt O60755); experiment: Radioligand binding at cloned human GAL3 receptor; conditions: cloned human receptor, read-out: Ki GalR3
T1 construct: expressed in transfected cells
T1 sequence (O60755 1-368): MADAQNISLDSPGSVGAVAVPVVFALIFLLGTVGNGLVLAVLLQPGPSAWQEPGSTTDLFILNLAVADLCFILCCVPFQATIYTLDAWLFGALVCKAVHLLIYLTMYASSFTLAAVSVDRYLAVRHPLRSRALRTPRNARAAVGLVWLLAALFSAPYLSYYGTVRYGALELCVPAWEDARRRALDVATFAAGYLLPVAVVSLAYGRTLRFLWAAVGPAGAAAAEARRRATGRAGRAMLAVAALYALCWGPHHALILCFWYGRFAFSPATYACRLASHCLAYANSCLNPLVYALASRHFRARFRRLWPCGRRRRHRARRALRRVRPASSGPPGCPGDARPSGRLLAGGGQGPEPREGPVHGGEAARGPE
Summary of the method: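 Compound vehicle, as final assay concentration, was 3% DMSO (indolones) or 1% ethanol/0.09% polypuronic acid F-127 (pyrimidines). Binding measured on fresh or frozen membranes of stably transfected LM(tk-) mouse fibroblasts carrying cloned human GAL3, in pH 7.4 HEPES buffer; values derived by nonlinear regression.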

human GAL2 receptor = target: T2, human GAL2 receptor (Homo sapiens, UniProt O43603); experiment: Radioligand binding at cloned human GAL2 receptor; conditions: pyrimidines, read-out: Ki GalR2
T2 construct: expressed in transfected cells
T2 sequence (O43603 1-387): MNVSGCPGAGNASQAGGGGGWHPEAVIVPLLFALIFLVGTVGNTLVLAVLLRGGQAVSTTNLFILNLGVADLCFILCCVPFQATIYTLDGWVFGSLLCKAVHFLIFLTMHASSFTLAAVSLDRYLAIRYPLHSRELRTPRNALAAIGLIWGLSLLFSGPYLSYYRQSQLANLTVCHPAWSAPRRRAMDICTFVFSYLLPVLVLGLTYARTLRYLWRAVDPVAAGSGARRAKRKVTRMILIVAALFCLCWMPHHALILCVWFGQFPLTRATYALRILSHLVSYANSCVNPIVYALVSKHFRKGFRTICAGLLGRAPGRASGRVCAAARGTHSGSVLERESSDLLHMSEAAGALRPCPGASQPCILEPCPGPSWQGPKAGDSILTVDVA
Procedure: The binding properties of the pyrimidines of the present invention were evaluated at the cloned human galanin receptors, GAL1, GAL2, and GAL3, using protocols described herein.
The binding properties of the indolones of the present invention were evaluated at the cloned human galanin receptors, GAL1, GAL2, and GAL3, using protocols described herein.
LM(tk-) cells were stably transfected with the human GAL1 or GAL3 receptor. CHO cells were stably transfected with the human GAL2 receptor.
cDNAs for the human and rat GAL1, and human and rat GAL3 receptors were transfected with a G-418 resistant gene into the mouse fibroblast LM(tk-) cell line by a calcium phosphate transfection method (Cullen, 1987). Stably transfected cells were selected with G-418. Human and rat GAL2 receptors were similarly transfected into CHO cells.
Membranes were harvested from stably transfected LM(tk-) cells. Adherent cells were washed twice in ice-cold phosphate buffered saline (138 mM NaCl, 8.1 mM Na2HPO4, 2.5 mM KCl, 1.2 mM KH2PO4, 0.9 mM CaCl2, 0.5 mM MgCl2, pH 7.4) and lysed by sonication in ice-cold sonication buffer (20 mM Tris-HCl, 5 mM EDTA, pH 7.7). Large particles and debris were cleared by low speed centrifugation (200 x g, 5 min, 4°C). Membranes were collected from the supernatant fraction by centrifugation (32,000 x g, 18 min, 4°C), washed with ice-cold hypotonic buffer, and collected again by centrifugation (32,000 x g, 18 min, 4°C). The final membrane pellet was resuspended by sonication into a small volume of ice-cold binding buffer (-1 ml for every 5 plates: 10 mM NaCl, 20 mM HEPES, 0.22 mM KH2PO4, 1.26 mM CaCl2, 0.81 mM MgSO4, pH 7.4). Protein concentration was measured by the Bradford method (Bradford, 1976) using Bio-Rad Reagent, with bovine serum albumin as a standard. Membranes were held on ice for up to one hour and used fresh, or flash frozen and stored in liquid nitrogen. Membranes were prepared similarly from CHO cells.
Galanin Recentors: Binding assays were performed according to the following published methods: human GAL3 (PCT International Publication No. WO 98/15570), human GAL1 (PCT International Publication No. WO 95/2260), human GAL2 (PCT International Publication No. WO 97/26853).
Binding data were analyzed using nonlinear regression and statistical techniques available in the GraphPAD Prism package (San Diego, CA). Enzymatic assay data were derived from a standard curve of reference compound data.

Male Sprague-Dawley rats = experiment: Rat Forced Swim Test (FST); format: in vivo; conditions: for antidepressant profile in the FST (conclusion): overall conclusion of the study
Procedure: The procedure used in this study was similar to that previously described (Porsolt, et al., 1978), except the water depth (30 cm in this procedure). The greater depth in this test prevented the rats from supporting themselves by touching the bottom of the cylinder with their feet. Swim sessions were conducted by placing rats in individual plexiglass cylinders (46 cm tall x 20 cm in diameter) containing 23-25°C water 30 cm deep (Porsolt, et al. used a depth of only 15 cm; also, see Detke, et al., 1995). Two swim tests were conducted always between 1200 and 1800 hours: an initial 15-min pretest followed 24 h later by a 5-minute test. […] All other test sessions were conducted between 1300 to 1700 hours. Following all swim sessions, rats were removed from the cylinders, dried with paper towels and placed in a heated cage for 15 minutes and returned to their home cages. All test sessions were videotaped using a Panasonic color video camera and recorder for scoring later.
Male Sprague-Dawley rats (Taconic Farms, NY) were used in all experiments. Rats were housed in pairs and maintained on a 12:12-h light-dark cycle. Rats were handled for 5 minutes each day for 5 days prior to behavioral testing.
The rat's behavior was rated at 5 second intervals during the 5 minute test as one of the following: • 1. Immobility- rat remained floating in the water without struggling and was only making those movements necessary to keep its head above water; • 2. Climbing - rat was making active movements with its forepaws in and out of the water, usually directed against the walls; • 3. Swimming - rat was making active swimming motions, more than necessary to merely maintain its head above water, e.g. moving around in the cylinder; and • 4. Diving - entire body of the rat was submerged.
All of the behavior scoring was done by a single rater, who was blind to the treatment condition. The rater was also present in the room throughout the entire test period.
All injections were given using 1 cc tuberculin syringe with 26 3/8 gauge needles (Becton-Dickinson, VWR Scientific, Bridgeport, NJ). The volume of injection was 1 ml/kg.
The drugs were dissolved in 100% N,N-dimethylacetamide. All administrations were given using 1 cc tuberculin syringes, to which a 3 inch, curved, stainless steel gavage needle was attached. The volume of administration was 1 ml/kg.
The compounds were dissolved in 100% N,N-dimethylacetamide. All administrations were given using 1 cc tuberculin syringes, to which a 3 inch, curved, stainless steel gavage needle was attached. The volume of administration was 1 ml/kg.
The forced swim test data (immobility, swimming, climbing, diving) were subjected to a randomized, one-way ANOVA and post hoc tests conducted using the Student-Newman-heuls test. The data were analyzed using the GBSTAT program, version 6.5 (Dynamics Microsystems, Inc., Silver Spring, MD, 1997). All data are presented as means ± S.E.M.

[1] = 5 mg/kg p.o., single administration, 1 hr. before test
[2] = 10 mg/kg i.p., single injection, 5 minute test
[3] = 10 mg/kg p.o., single administration 24 hours before the test day
[4] = 3 mg/kg p.o., single administration 24 hours before the test day
[5] = 1 mg/kg p.o., single administration, 1 hr. before test
[6] = 3 mg/kg p.o., single administration, 1 hr. before test
[7] = 10 mg/kg p.o., single administration, 1 hr. before test

## Cc1ccc(Nc2cc(N3CCCCC3)nc(N3CCN(c4ccccn4)CC3)n2)cc1 [Example 30]
Human GAL3 receptor; pyrimidines
  Ki: 197 nM
Human GAL2 receptor
  Ki: 2610 nM

## Cc1ccc(Nc2cc(N(C)C)nc(N3CCN(c4ccccc4C)CC3)n2)cc1 [Example 85]
Human GAL3 receptor; pyrimidines
  Ki: 72 nM
Human GAL2 receptor
  Ki: 4230 nM

## Cc1ccc(Nc2cc(N3CCCCC3)nc(N3CCC(O)(c4ccccc4)CC3)n2)cc1 [Example 44]
Human GAL3 receptor; pyrimidines
  Ki: 133 nM
Human GAL2 receptor
  Ki: 1020 nM

## Cc1ccc(Nc2cc(N3CCCCC3)nc(N3CCN(c4ncccn4)CC3)n2)cc1 [Example 37]
Human GAL3 receptor; pyrimidines
  Ki: 343 nM
Human GAL2 receptor
  Ki: 903 nM

## Cc1ccc(Nc2cc(N(C)C)nc(N(C)c3ccc(C)cc3)n2)cc1 [Example 72]
Human GAL3 receptor; pyrimidines
  Ki: 132 nM
Human GAL2 receptor
  Ki: 2080 nM

## Cc1ccc(Nc2cc(N(C)C)nc(N3CCN(c4ccc(C)cc4)CC3)n2)cc1 [Example 87]
Human GAL3 receptor; pyrimidines
  Ki: 157 nM
Human GAL2 receptor
  Ki: 4620 nM

## CNCCC(Oc1ccc(C(F)(F)F)cc1)c1ccccc1 (stereo not shown) [Fluoxetine, fluoxetine, reference compound]
Male Sprague-Dawley rats; [1]
  Climbing: 1.2 ± 0.4
  Diving: 0.0 ± 0.0
  Immobility: 45 ± 1.3^c
  Swimming: 13.9 ± 1.0
Male Sprague-Dawley rats; [2]
  Climbing: 14.3 ± 0.9 counts
  Diving: 0.1 ± 0.1
  Immobility: 21 ± 0.9^a counts
  Swimming: 25 ± 1.2^b counts
Male Sprague-Dawley rats; [3]
  Climbing: 3.3 ± 0.6
  Diving: 0.2 ± 0.1
  Immobility: 35 ± 1.7^a
  Swimming: 21.4 ± 1.0^b

## O=C1/C(=N\c2ccc(Cl)c(Cl)c2)c2ccccc2N1c1ccsc1 [Example 272, (3Z)-3-[(3,4-DICHLOROPHENYL)IMINO]-1-(3-THIENYL)-1,3-DIHYDRO-2H-INDOL-2-ONE]
Male Sprague-Dawley rats; [4]
  Climbing: 3.9 ± 0.6
  Diving: 0.6 ± 0.4
  Immobility: 33 ± 1.8^a
  Swimming: 22.9 ± 1.3^b
Male Sprague-Dawley rats
  antidepressant profile in the FST (conclusion): has the profile of an antidepressant
Human GAL3 receptor; indolones
  Ki: 26 nM

## CN(C)c1cc(Nc2ccc(Cl)c(Cl)c2)nc(N2CCN(Cc3ccccc3)CC2)n1 [Example 151]
Male Sprague-Dawley rats; [5]
  Climbing: 2.3 ± 0.6
  Diving: 0.2 ± 0.2
  Immobility: 41 ± 2.0
  Swimming: 16.8 ± 1.4^d
Male Sprague-Dawley rats; [6]
  Climbing: 2.4 ± 0.5
  Diving: 0.3 ± 0.2
  Immobility: 38 ± 2.0^a
  Swimming: 19.5 ± 1.5^e
Male Sprague-Dawley rats; [7]
  Climbing: 2.2 ± 0.5
  Diving: 0.3 ± 0.2
  Immobility: 39 ± 1.8^b
  Swimming: 18.9 ± 1.5^e
Male Sprague-Dawley rats
  antidepressant profile in the FST (conclusion): resemble those of antidepressants
Human GAL3 receptor; pyrimidines
  Ki: 11 nM

## CN(C)c1cc(NC2C3CC4CC(C3)CC2C4)nc(N2CCN(Cc3ccccc3)CC2)n1 (stereo not shown) [Example 137]
Human GAL3 receptor; pyrimidines
  Ki: 124 nM

## CN(C)c1cc(Nc2ccc(Cl)cc2)nc(N2CCN(c3ccccn3)CC2)n1 [Example 194]
Human GAL3 receptor; pyrimidines
  Ki: 248 nM

## COc1ccc(Cl)cc1Nc1cc(N(C)C)nc(N2CCN(c3ccccn3)CC2)n1 [Example 220]
Human GAL3 receptor; pyrimidines
  Ki: 708 nM

## CN(C)c1cccc(Nc2cc(N(C)C)nc(N3CCN(Cc4ccccc4)CC3)n2)c1 [Example 126]
Human GAL3 receptor; pyrimidines
  Ki: 99 nM

## O=C1/C(=N\c2ccc3ccccc3c2)c2ccccc2N1c1ccsc1 [Example 260, (3Z)-3-(2-NAPHTHYLIMINO)-1-(3-THIENYL)-1,3-DIHYDRO-2H-INDOL-2-ONE]
Human GAL3 receptor; indolones
  Ki: 60 nM
